Assay results as given in PubChem BioAssay AID449760 (The Scripps Research Institute Molecular Screening Center, 2010).
Several values for one entry are separate records, joined by “and”; a condition that tells them apart may be missing. Equal entries are not always repeated. Activity calls are given as the source filed them. The rule behind the calls is not given here.

Tested on: NIH 3T3 STAT1-luciferase reporter, IFNg-stimulated, luminescence
Assay: boost of IFNg-driven STAT1 luciferase signal – cell-based, luminescence, NIH 3T3, assay provider, late-stage follow-up (AID 449760)
Conditions: at 10 µM; stronger effect = higher value

**Q.** Which fold change vs IFNg does the source give for `O=C(/C=C/Nc1ccccc1F)c1ccc(Br)cc1` here?
**A.** The fold change vs IFNg was 0.87 (inactive).

**Q.** For `Cc1nnc(SCC(=O)Nc2ccc(-c3nc4ccccc4s3)cc2)s1`, which fold change vs IFNg is on record?
**A.** Its fold change vs IFNg is 1 (inactive).

**Q.** Which fold change vs IFNg does the source give for `N#C/C(=C\c1ccc(N2CCOCC2)o1)c1nc2ccccc2[nH]1` here?
**A.** Its fold change vs IFNg is 0.94 (inactive).

**Q.** Which fold change vs IFNg does the source give for `CCN(CC)c1ccc2cc(C(=O)Nc3ccccn3)c(=O)oc2c1` here?
**A.** The fold change vs IFNg was 0.41 (inactive).

**Q.** Which fold change vs IFNg does the source give for `CC(=O)NC(=S)Nc1sc2c(c1C#N)CCCCC2` here?
**A.** Its fold change vs IFNg is 0.45 (inactive).

**Q.** For `COc1ccc2[nH]c3c(c2c1)CCn1c-3nc2ccccc2c1=O`, which fold change vs IFNg is on record?
**A.** Its fold change vs IFNg is 0.94 (inactive).

**Q.** Which fold change vs IFNg does the source give for `COc1ccc(-c2csc(N3C(=O)CNC3=S)n2)cc1` here?
**A.** The fold change vs IFNg was 1.19 (inactive).

**Q.** For `COc1ccc(-c2cc(C)nc3c(-c4ccccc4)cnn23)cc1`, which fold change vs IFNg is on record?
**A.** The fold change vs IFNg was 0.36 (inactive) and 0.19 (inactive).

**Q.** For `O=C(Nc1nc2ccccc2s1)c1cc2ccccc2s1`, which fold change vs IFNg is on record?
**A.** Its fold change vs IFNg is 1.02 (inactive).

**Q.** Which fold change vs IFNg does the source give for `Cc1ccc(C(=O)Nc2nc3ccccc3s2)s1` here?
**A.** Its fold change vs IFNg is 1.22 (inactive).

**Q.** `CCOC(=O)/C(C#N)=C/c1cc(C)n(-c2ccccc2)c1C` was tested. Which fold change vs IFNg did it give?
**A.** Its fold change vs IFNg is 0.028 (inactive).

**Q.** `Cc1cc(-c2ccc(F)cc2)n2ncc(-c3ccccc3)c2n1` was tested. Which fold change vs IFNg did it give?
**A.** Its fold change vs IFNg is 0.09 (inactive).
